# Results as given in publication PMC11714206, “Massively Parallel Screening of Toll/Interleukin‐1 Receptor (TIR)‐Derived Peptides Reveals Multiple Toll‐Like Receptors (TLRs)‐Targeting Immunomodulatory Peptides” (Advanced Science, 2024).
# Several values for one entry are separate records, joined by “and”; a condition that tells them apart may be missing. Equal entries are not always repeated.
# Biological target: T1, MyD88^TIR (Homo sapiens, UniProt Q99836)
# T1 construct: MyD88 (residues 148–296); 6xHis; made in house; host or cells: E. coli BL21 (DE3)
# T1 sequence (Q99836 148-296): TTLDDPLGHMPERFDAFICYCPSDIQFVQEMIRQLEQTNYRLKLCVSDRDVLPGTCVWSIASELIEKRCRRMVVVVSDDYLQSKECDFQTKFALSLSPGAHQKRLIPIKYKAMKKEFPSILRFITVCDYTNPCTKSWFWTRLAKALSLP
# Assay: T‐Surf phage library (P8 and P3) selection against MyD88^TIR, four rounds, NGS read counts
# Type: binding
# Details: for P8_MyD88 Rank (after) / P8_MyD88 Rank (before): P8 library; for Population: 4th round of selection against MyD88 TIR, share of NGS reads; for P3_MyD88 Rank (after) / P3_MyD88 Rank (before): P3 library
# How it was run: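 P8 and P3 T‐Surf libraries panned against plate-coated TIR domains (5 µg mL^−1), 1 h binding at RT, acid elution and TG1/helper-phage amplification per round. After four rounds, pools were PCR-barcoded and sequenced (NovaSeq, 100 bp paired-end, Phred ≥30); peptides ranked by read counts.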
# [1] = selection against MyD88, rank after grouping
# [2] = selection against MyD88, rank before grouping
# [3] = selection against MyD88 TIR, rank by count after grouping
# [4] = selection against MyD88 TIR, rank by count before grouping
# [5] = P8_MyD88: rank by count after grouping
# [6] = P8_MyD88: rank by count before grouping
# [7] = P8_MyD88 pool: P8 T-Surf phage library
# [8] = selection against MyD88, rank by count after grouping
# [9] = selection against MyD88, rank by count before grouping
# [10] = P3_MyD88: rank by count after grouping
# [11] = P3_MyD88: rank by count before grouping
# [12] = P3_MyD88 pool: P3 T-Surf phage library
# [13] = P8_MyD88: rank by NGS read count after grouping
# [14] = P8_MyD88: rank by NGS read count before grouping
# [15] = 4R selection against MyD88, rank after grouping
# [16] = 4R selection against MyD88, rank before grouping
sequence,measurement,setting,value
VANILGYHWMDWVYFV,P8_MyD88 Rank (after),[1],563
same,P8_MyD88 Rank (before),[2],2191
DPQDLEWFYERLVSRF,P8_MyD88 Rank (after),[3],266
same,P8_MyD88 Rank (before),[4],2851
WALNELLEILKAREDI,Rank (after),[5],115
same,Rank (before),[6],123
same,Population,[7],0.0173%
DWVWDYLLPDLLGPAG,P8_MyD88 Rank (after),[8],700
same,P8_MyD88 Rank (before),[9],2416
YAASPWWFDELVTILG,Rank (after),[5],433
same,Rank (before),[6],1725
YASSSWALDELLQILHARELF,Rank (after),[5],175
same,Rank (before),[6],207
SSFREALWRLLELSKN,Rank (after),[10],167
same,Rank (before),[11],3222
YAFTGHLHRDLVQRGL,Rank (after),[10],427
same,Rank (before),[11],1521
SSFRECLWSLPELSKK,P3_MyD88 Rank (after),[8],699
same,P3_MyD88 Rank (before),[9],3138
WPEDYQDIGWFLDNLS,P8_MyD88 Rank (after),[3],202
same,P8_MyD88 Rank (before),[4],275
DHHLDLPRGKAIKQEILG,Population,[12],0.00495%
WFWQKLNYAMPHLARL,P8_MyD88 Rank (after),[3],200
same,P8_MyD88 Rank (before),[4],271
NSFREGLWRLVELSKK,P3_MyD88 Rank (after),[1],535
same,P3_MyD88 Rank (before),[2],3557
SQRADCSWEWQKMLYP,Rank (after),[13],953
same,Rank (before),[14],1659
ELDFSHFWLFEARGDA,Population,[7],0.0224%
NQGRNALTAAADLSGW,P3_MyD88 Rank (after),[8],697
same,P3_MyD88 Rank (before),[9],3541
YYFTIGIAKRKLSRK,P8_MyD88 Rank (after),[8],692
same,P8_MyD88 Rank (before),[9],1687
QLIGCGNTFFRWKKKIR,Rank (after),[13],1002
same,Rank (before),[14],3572
SSIREGLWRQLELSKK,P3_MyD88 Rank (after),[15],665
same,P3_MyD88 Rank (before),[16],3277
LGYHWMGWEYFVGIED,P8_MyD88 Rank (after),[1],560
same,P8_MyD88 Rank (before),[2],3298
YATSSWALNELVYLIM,Rank (after),[5],146
same,Rank (before),[6],162
same,Population,[7],0.00886%
HLLREFDKKLITAFQD,P3_MyD88 Rank (after),[15],594
same,P3_MyD88 Rank (before),[16],2769
YTALTNRAFIPFVIM,P3_MyD88 Rank (after),[15],590
same,P3_MyD88 Rank (before),[16],1658
DPQDLAWFYERLVSLF,Population,[7],0.00617%
LVANEISKKIKIFAII,P3_MyD88 Rank (after),[1],533
same,P3_MyD88 Rank (before),[2],2319
SSFRQGLWRLRELSKK,Rank (after),[10],405
same,Rank (before),[11],3229
NHHLDPPRGKANKPGILG,P3_MyD88 Rank (after),[8],702
same,P3_MyD88 Rank (before),[9],3461
YASSWWALEELLQILHARELF,Rank (after),[13],931
same,Rank (before),[14],1850
RYIMPHPQELIQQKQP,P3_MyD88 Rank (after),[3],249
same,P3_MyD88 Rank (before),[4],2561
LGYHWLDWEYFVSIED,Rank (after),[5],451
same,Rank (before),[6],3240
NQLRNAQTAAANLSGW,P3_MyD88 Rank (after),[3],233
same,P3_MyD88 Rank (before),[4],3463
SSFRRPVASAGTEQK,Rank (after),[10],471
same,Rank (before),[11],3247
DLLVLEWFYERVFSQM,P8_MyD88 Rank (after),[8],713
same,P8_MyD88 Rank (before),[9],2590
DTKLKEGDCVPPELLR,P3_MyD88 Rank (after),[15],664
same,P3_MyD88 Rank (before),[16],2090
SSSFALHELATILEAL,Rank (after),[5],412
same,Rank (before),[6],1290
DPQDLEWLYERLVSLF,Rank (after),[5],180
same,Rank (before),[6],1108
SSCREGLWRLLELSNK,Rank (after),[10],402
same,Rank (before),[11],3260
DPQELDWFYELLVSPF,P8_MyD88 Rank (after),[8],689
same,P8_MyD88 Rank (before),[9],2982
YVDSPWALDELVKILQ,P8_MyD88 Rank (after),[3],207
same,P8_MyD88 Rank (before),[4],300
DSVFWDLLRYSLHVTE,Rank (after),[5],466
same,Rank (before),[6],3127
KEVEGWRCADQSGEP,P3_MyD88 Rank (after),[15],666
same,P3_MyD88 Rank (before),[16],3653
YLKWGYPWFGIVCVL,Rank (after),[10],166
same,Rank (before),[11],855
LVYHWIDWVYFVGIED,P8_MyD88 Rank (after),[15],659
same,P8_MyD88 Rank (before),[16],3211
WALRELEAILQSFQLS,Rank (after),[5],142
same,Rank (before),[6],154
same,Population,[7],0.01%
YLLLNVFQIIFARGPE,P8_MyD88 Rank (after),[1],546
same,P8_MyD88 Rank (before),[2],2018
NDLVHGWSSKANSLVG,Rank (after),[10],136
same,Rank (before),[11],3388
LVAHELLKKMKIFATI,P3_MyD88 Rank (after),[3],232
same,P3_MyD88 Rank (before),[4],2275
DLVCDYLLPNLEGAAG,P8_MyD88 Rank (after),[1],537
same,P8_MyD88 Rank (before),[2],2385
YYDSRWALNELLEIL,Rank (after),[13],903
same,Rank (before),[14],1682
YAASPWWFDELLQIA,P8_MyD88 Rank (after),[15],633
same,P8_MyD88 Rank (before),[16],1740
DPQDLDWFYERLVSPL,Rank (after),[5],99
same,Rank (before),[6],396
HPWRNTLTAAANLNGR,P3_MyD88 Rank (after),[1],546
same,P3_MyD88 Rank (before),[2],2804
DHHMDLTRGKAIKPEILG,P3_MyD88 Rank (after),[15],616
same,P3_MyD88 Rank (before),[16],2061
DPQELQWIYERLVSLF,P8_MyD88 Rank (after),[8],759
same,P8_MyD88 Rank (before),[9],3018
GEVPRYIFTGHLHATQ,P3_MyD88 Rank (after),[15],633
same,P3_MyD88 Rank (before),[16],1826
YLRADEFWTLEKLLTA,P8_MyD88 Rank (after),[15],609
same,P8_MyD88 Rank (before),[16],2071
YLQWGYSWFWDRLRFA,P3_MyD88 Rank (after),[3],259
same,P3_MyD88 Rank (before),[4],1558
DPQYRDWFYERLVSLP,P8_MyD88 Rank (after),[1],512
same,P8_MyD88 Rank (before),[2],2642
DPQELDWFYERLVSLF,Population,[7],0.02% and 0.0158%
PQDLVWFFEGLVSLIL,Rank (after),[13],952
same,Rank (before),[14],3420
NDLVHVWSSKANSLVG,Population,[12],0.00495%
KNLFNELVHVWSSKANSLVG,Rank (after),[10],148
same,Rank (before),[11],800
HFAFSSWALDELANIL,P8_MyD88 Rank (after),[3],282
same,P8_MyD88 Rank (before),[4],612
DPQELDGFYERLVSLF,Rank (after),[5],401
same,Rank (before),[6],3015
DPQELGWFYERPFSQM,P8_MyD88 Rank (after),[1],554
same,P8_MyD88 Rank (before),[2],2981
SSFREGLWHLLVLSKK,Rank (after),[10],160
same,Rank (before),[11],3197
VQWDDSWFWEKLLYA,Rank (after),[13],1018
same,Rank (before),[14],2248
WDFCEQYGTVLGSSVL,P8_MyD88 Rank (after),[1],555
same,P8_MyD88 Rank (before),[2],1569
LKCGEPYFWSKLRYSI,P3_MyD88 Rank (after),[1],578
same,P3_MyD88 Rank (before),[2],2406
DPQDLDWFLNVWLTW,P8_MyD88 Rank (after),[1],575
same,P8_MyD88 Rank (before),[2],2743
DWVWDYLLPNGRPSG,Rank (after),[13],987
same,Rank (before),[14],2420
SSFREGLWRLLELSKN,Population,[12],0.00349%
YTALTNIGIHTFRDND,P3_MyD88 Rank (after),[3],223
same,P3_MyD88 Rank (before),[4],1655
SSFRESLWRLLELSKK,Population,[12],0.0032%
NGHESEIITVIVDTIV,P3_MyD88 Rank (after),[3],221
same,P3_MyD88 Rank (before),[4],3351
DPQDLDWFYERQVSLL,Rank (after),[5],106
same,Rank (before),[6],568
LKVESWRQALEKAGKL,P8_MyD88 Rank (after),[3],211
same,P8_MyD88 Rank (before),[4],326
DPQDLVWFYERLVSLF,Population,[7],0.00886%
